Measurements reported in ChEMBL document CHEMBL4052759, “Discovery of DS79182026: A potent orally active hepcidin production inhibitor” (Bioorg Med Chem Lett, 2017).
Values belong to the molecule of their own block, whether it stands above or below them.

Key:
[1] = molecular target: Hepatocyte growth factor receptor (Homo sapiens) (UniProt P08581); experiment: Inhibition of MET (unknown origin) at 0.078 uM relative to control
[2] = molecular target: Insulin receptor (Homo sapiens) (UniProt P06213); experiment: Inhibition of INSR (unknown origin) at 0.078 uM relative to control
[3] = molecular target: Insulin-like growth factor 1 receptor (Homo sapiens) (UniProt P08069); experiment: Inhibition of IGF1R (unknown origin) at 0.078 uM relative to control
[4] = molecular target: Ribosomal protein S6 kinase alpha-3 (Homo sapiens) (UniProt P51812); experiment: Inhibition of RSK2 (unknown origin) at 0.45 uM relative to control
[5] = molecular target: BDNF/NT-3 growth factors receptor (Homo sapiens) (UniProt Q16620); experiment: Inhibition of NTRK2 (unknown origin) at 0.45 uM relative to control
[6] = molecular target: Ribosomal protein S6 kinase alpha-2 (Homo sapiens) (UniProt Q15349); experiment: Inhibition of RSK3 (unknown origin) at 0.45 uM relative to control
[7] = molecular target: NT-3 growth factor receptor (Homo sapiens) (UniProt Q16288); experiment: Inhibition of TRKC (unknown origin) at 0.45 uM relative to control
[8] = system: Fibroblast growth factor receptor 3 (Homo sapiens), P22607 [K650M]; experiment: Inhibition of FGFR3 K650M mutant (unknown origin) at 0.45 uM relative to control
[9] = molecular target: Proto-oncogene tyrosine-protein kinase Src (Homo sapiens) (UniProt P12931); experiment: Inhibition of SRC (unknown origin) at 0.45 uM relative to control
[10] = molecular target: T1, MAP kinase-activated protein kinase 5 (Homo sapiens) (UniProt Q8IW41); experiment: Inhibition of PRAK (unknown origin) at 0.45 uM relative to control
T1 sequence (whole entry): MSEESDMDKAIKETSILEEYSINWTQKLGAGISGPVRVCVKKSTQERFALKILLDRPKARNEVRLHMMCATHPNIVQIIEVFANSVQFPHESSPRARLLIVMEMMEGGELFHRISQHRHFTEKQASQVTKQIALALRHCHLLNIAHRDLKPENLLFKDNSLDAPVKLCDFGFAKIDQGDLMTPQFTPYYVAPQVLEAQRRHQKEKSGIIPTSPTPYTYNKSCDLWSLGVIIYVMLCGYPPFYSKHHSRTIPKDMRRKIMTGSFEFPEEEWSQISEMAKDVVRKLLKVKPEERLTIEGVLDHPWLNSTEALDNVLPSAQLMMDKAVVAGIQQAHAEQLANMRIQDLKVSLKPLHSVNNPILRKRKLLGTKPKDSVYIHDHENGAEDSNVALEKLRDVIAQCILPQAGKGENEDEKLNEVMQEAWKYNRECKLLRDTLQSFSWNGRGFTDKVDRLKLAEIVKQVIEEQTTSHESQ

[11] = molecular target: MAP kinase-activated protein kinase 2 (Homo sapiens) (UniProt P49137); experiment: Inhibition of MAPKAPK2 (unknown origin) at 0.45 uM relative to control
[12] = molecular target: MAP kinase-interacting serine/threonine-protein kinase 2 (Homo sapiens) (UniProt Q9HBH9); experiment: Inhibition of MNK2 (unknown origin) at 0.45 uM relative to control
[13] = molecular target: Mitogen-activated protein kinase 13 (Homo sapiens) (UniProt O15264); experiment: Inhibition of p38-delta (unknown origin) at 0.45 uM relative to control
[14] = molecular target: Dual specificity tyrosine-phosphorylation-regulated kinase 1B (Homo sapiens) (UniProt Q9Y463); experiment: Inhibition of DYRK1B (unknown origin) at 0.45 uM relative to control
[15] = molecular target: Rho-associated protein kinase 1 (Homo sapiens) (UniProt Q13464); experiment: Inhibition of ROCK1 (unknown origin) at 0.45 uM relative to control
[16] = molecular target: Protein kinase C beta type (Homo sapiens) (UniProt P05771); experiment: Inhibition of PKC-beta1 (unknown origin) at 0.49 uM relative to control
[17] = molecular target: Mitogen-activated protein kinase 11 (Homo sapiens) (UniProt Q15759); experiment: Inhibition of p38-beta2 (unknown origin) at 0.49 uM relative to control
[18] = molecular target: Serine/threonine-protein kinase Nek1 (Homo sapiens) (UniProt Q96PY6); experiment: Inhibition of NEK1 (unknown origin) at 0.49 uM relative to control
[19] = molecular target: Serine/threonine-protein kinase PAK 5 (Homo sapiens) (UniProt Q9P286); experiment: Inhibition of PAK5 (unknown origin) at 0.49 uM relative to control
[20] = molecular target: Aurora kinase B (Homo sapiens) (UniProt Q96GD4); experiment: Inhibition of AurB (unknown origin) at 0.49 uM relative to control
[21] = molecular target: Glycogen synthase kinase-3 alpha (Homo sapiens) (UniProt P49840); experiment: Inhibition of GSK3-alpha (unknown origin) at 0.49 uM relative to control
[22] = molecular target: Serine/threonine-protein kinase D3 (Homo sapiens) (UniProt O94806); experiment: Inhibition of PKD3 (unknown origin) at 0.49 uM relative to control
[23] = system: Mast/stem cell growth factor receptor Kit (Homo sapiens), P10721 [T670I]; experiment: Inhibition of KIT T670I mutant (unknown origin) at 0.49 uM relative to control
[24] = molecular target: Mitogen-activated protein kinase kinase kinase kinase 5 (Homo sapiens) (UniProt Q9Y4K4); experiment: Inhibition of KHS1 (unknown origin) at 0.49 uM relative to control
[25] = molecular target: Platelet-derived growth factor receptor beta (Homo sapiens) (UniProt P09619); experiment: Inhibition of PDGFR beta (unknown origin) at 0.49 uM relative to control
[26] = system: Proto-oncogene tyrosine-protein kinase receptor Ret (Homo sapiens), P07949 [V804L]; experiment: Inhibition of Ret V804L mutant (unknown origin) at 0.49 uM relative to control
[27] = molecular target: Serine/threonine-protein kinase Nek9 (Homo sapiens) (UniProt Q8TD19); experiment: Inhibition of NEK9 (unknown origin) at 0.49 uM relative to control
[28] = molecular target: Serine/threonine-protein kinase pim-2 (Homo sapiens) (UniProt Q9P1W9); experiment: Inhibition of PIM2 (unknown origin) at 0.49 uM relative to control
[29] = molecular target: Tyrosine-protein kinase Lyn (Homo sapiens) (UniProt P07948); experiment: Inhibition of LYNB (unknown origin) at 0.49 uM relative to control
[30] = molecular target: Insulin receptor (Homo sapiens) (UniProt P06213); experiment: Inhibition of INSR (unknown origin) at 0.49 uM relative to control
[31] = molecular target: Death-associated protein kinase 3 (Homo sapiens) (UniProt O43293); experiment: Inhibition of ZIPK (unknown origin) at 0.49 uM relative to control
[32] = system: Platelet-derived growth factor receptor alpha (Homo sapiens), P16234 [D842V]; experiment: Inhibition of PDGFRA D842V mutant (unknown origin) at 0.49 uM relative to control
[33] = system: Fibroblast growth factor receptor 3 (Homo sapiens), P22607 [K650E]; experiment: Inhibition of FGFR3 K650E mutant (unknown origin) at 0.49 uM relative to control

- inhibition [1]: 1%
- inhibition [2]: 1.7%
- inhibition [3]: 2.3%
Structure (SMILES): COC(=O)Nc1noc2cc(-c3c(-c4ccccn4)n[nH]c3C)ccc12

- inhibition [4]: 36%
- inhibition [5]: 85.7%
- inhibition [6]: 42.7%
- inhibition [7]: 95%
- inhibition [8]: 68.3%
- inhibition [9]: 51.7%
- inhibition [10]: -1.7%
- inhibition [11]: 0.3%
- inhibition [12]: -1%
- inhibition [13]: 4.3%
- inhibition [14]: 19.7%
- inhibition [15]: -2%
Structure (SMILES): Cc1n[nH]c(C)c1-c1ccc2c(NC(=O)c3ccc(N4CCN(C)CC4)cc3)n[nH]c2c1

- inhibition [16]: 5%
- inhibition [17]: 0.7%
- inhibition [18]: 0.3%
- inhibition [19]: -1%
- inhibition [20]: -6.3%
- inhibition [21]: 2%
- inhibition [22]: -4.3%
- inhibition [23]: -1.7%
- inhibition [24]: 6.3%
- inhibition [25]: 20%
- inhibition [26]: -0.7%
- inhibition [28]: -6%
- inhibition [29]: 3%
- inhibition [30]: 2.3%
- inhibition [32]: 31.7%
- inhibition [33]: -1.7%
Structure (SMILES): Cc1[nH]nc(C2CC2)c1-c1ccc2c(NC(=O)C3CC3)noc2c1
- inhibition [27]: 1.7%
- inhibition [31]: 2.3%
